Data set [1] can be described thus: Dissolution in warm water of particles precipitated from 10% w/v aqueous solution added dropwise to ethanol. The following applies: particles/precipitate formed in ethanol from 10% w/v solution in water. In kind it is physicochemical. The method, then:
It is anticipated that such droplets may be of particular use in assays, since the saccharide would be readily soluble in water or aqueous solution. Solutions of 10% w/v of mannitol and dextran in water were prepared. The solutions were then added dropwise to ethanol. The dextran solution produced amorphous particles in ethanol. […] It is anticipated that a solution comprising both mannitol and dextran may be beneficial in that dextran appears to be suitable for forming discrete particles and mannitol may well be a suitable bulking agent. Furthermore, the mannitol may give the beads a more manageable consistency. Attempts were made to make solid beads from the polyol solutions using the apparatus of FIGS. 1-4. […] It is thought that further cooling of the apparatus is required in order to freeze the droplets. This may be achieved, for example, by improving the cooling capability of the cooler. A solution of 10% w/v of mannitol in dimethyl sulphoxide (DMSO) was prepared. […] It is therefore anticipated that droplets made from this solution would freeze using the apparatus of FIGS. 1 to 4, and that solvent may be extracted from the frozen droplets using an anti-solvent, such as ethanol. As mentioned above, it is anticipated that the saccharide-based droplets may be used in assays. […]

The nature of data set [2]: Entrapment of active agent in PLGA beads with different anti-solvents, amount retained by HPLC and/or NMR. Further details: % active agent retained in solid beads: concentration or dose not given beside the values. The following applies: for % active agent retained in solid beads: 50:50 PLGA P2191 beads. In kind it is physicochemical. The method, then:
The entrapment of pharmaceutically active compound was investigated to determine the effect of using different anti-solvents.
The general methodology described above was used. Leuprolide acetate dissolved in DMSO/PLGA mixture at between 1-5 mg/ml of solution. The 50:50 lactide/glycolide polymer P2191 used in Example 3 was used in this Example, at a concentration of 10% w/v.
The flow rates were as used in Example 1. On entering the cooling part of the device, the functional fluid formed frozen droplets. Desolvation of the frozen droplets caused the formation of solid beads.
Various anti-solvents were investigated to determine the effect of the anti-solvent on the amount of active agent (leuprolide acetate) retained in the beads. HPLC and/or NMR were used to determine the amount of leuprolide acetate retained.

For `OC[C@@H](O)[C@@H](O)[C@H](O)[C@H](O)CO` [mannitol], the “dissolution in warm water” value in data set [1] is listed as “dissolved in warm water”.

Consider dextran, for which, in data set [1], the “dissolution in warm water” value was “readily dissolved in warm water”.

On to `CCNC(=O)[C@@H]1CCCN1C(=O)[C@H](CCCNC(=N)N)NC(=O)[C@H](CC(C)C)NC(=O)[C@@H](CC(C)C)NC(=O)[C@H](Cc1ccc(O)cc1)NC(=O)[C@H](CO)NC(=O)[C@H](Cc1c[nH]c2ccccc12)NC(=O)[C@H](Cc1c[nH]cn1)NC(=O)[C@@H]1CCC(=O)N1` [leuprolide acetate, Leuprolide acetate], for which the “% active agent retained in solid beads” value amounted to 63% in data set [2] (anti-solvent Ethanol and pentanol); 78% in data set [2] (anti-solvent Heptanol (batch 1)); 76% in data set [2] (anti-solvent Octanol:ethanol (80:20)); 84% in data set [2] (anti-solvent Octanol:ethanol (90:10)); 94% in data set [2] (anti-solvent Pentane); 92% in data set [2] (anti-solvent Pentanol). Besides, the “retention of the active” value in data set [2] (lactide/glycolide polymer as bead polymer, various C3 to C8 alcohols as anti-solvent) is on record as 60 to 95%.

(Values after US9656228B2, “Device and method for making solid beads” (Midatech Pharma (Wales) Limited, priority 2008, dated 2017).)
